# Measured values from publication PMC12040169 (PLOS Biology, 2025).
# Test: in vitro
# Settings: human, hela cells, % viability
row,SMILES,"viability at 28.5 h, 10 µM [%]"
1,CC(C)(C)c1csc(NC(=O)C2CC(=O)N(C3CCCC3)C2)n1 (stereo not shown) [CBK175544],105
2,Cc1nc(CN2CCCC(NCc3ccc(C(N)=O)cc3)C2)no1 (stereo not shown) [CBK304962],88.3
3,CCCN(C(C)=O)c1nc(O)cc(C(F)(F)F)n1 [CBK000427],85.5
4,O=[N+]([O-])c1ccccc1S(=O)(=O)N1CCN(c2ccnc3cc(Cl)ccc23)CC1 [CBK267271],92.1
5,Cc1cc(Cl)c(S(=O)(=O)N2CCN(c3ccc(F)cc3)CC2)cc1OCC(N)=O [CBK266439],98.3
6,CCCC(=O)N1CCC[C@H]1Cn1nc(-c2ccc(F)cc2)ccc1=O [CBK284288],99.5
7,CCc1nc2c(OCc3ccccc3OC)cccn2c1N(C)C(=O)C(C)C [CBK147763],97
8,C=C(C)CN1CCN(C(C(=O)O)c2c[nH]c3ccc(OCc4ccccc4)cc23)CC1 (stereo not shown) [CBK286668],80.6
9,Cn1c(=O)[nH]c(=O)c2c1nc(N1CCOCC1)n2CCCSc1nc2ccccc2s1 [CBK269368],92.7
10,CCNS(=O)(=O)c1ccc2c(c1)N(Cc1cccnc1C)CC2 [CBK306020],92.1
11,Cc1ccc(C2CCCN2C(=O)c2ccc(=O)n(CC(=O)Nc3ccc(F)cc3)c2)cc1C (stereo not shown) [CBK286088],107
12,O=C(O)CC(=Cc1csc(-c2ccc(Cl)cc2)n1)c1nc2ccccc2o1 [CBK297112],104
13,Cc1cccc(OCC(=O)Nc2ncccc2OCCCC#N)c1 [CBK305918],90.5
14,O=C(O)/C=C/c1cccc(NS(=O)(=O)c2ccc(C(=O)O)cc2)c1 [CBK262262],88
15,CC(C)(C)OC(=O)N1CCC(C2OCc3cc(-c4ccc(S(C)(=O)=O)cn4)ccc3O2)CC1 (stereo not shown) [CBK173326],87.6
16,O=C(C1CCCN1)N1CC2(CCCC2)c2c(F)cccc21 (stereo not shown) [CBK304489],90.1
17,CCc1nc(CC(=O)N2CCOC(c3ccc(F)cc3)C2)cs1 (stereo not shown) [CBK304083],87
18,Cc1cccc(C2(O)CCN(CC(O)c3ccc(F)cc3)CC2)c1 (stereo not shown) [CBK282504],96.6
19,O=C(Nc1nnn[nH]1)C12CC3CC(CC(C3)C1)C2 [CBK262276],82.4
20,CC(C)n1c(SCC(=O)Nc2nc(C(C)(C)C)cs2)nc2c1c(=O)n(C)c(=O)n2C [CBK127417],104
21,Cc1ccc(S(=O)(=O)NC[C@H]2O[C@@H](CC(=O)N3CCCC3)[C@H](O)[C@@H]2O)cc1 [CBK288910],112
22,Nc1nc(CC(=O)N2CCCCC2)cs1 [CBK049866],97.9

row,SMILES,"viability at 28.5 h, 10 µM [%]"
1,O=C(CC1CC1)NCc1ccc(-c2csnn2)cc1 [CBK149287],92.8
2,O=C(O)CN1/C(=C\C=C2/SC(=S)N(c3ccccc3)C2=O)Sc2ccccc21 [CBK265251],86.3
3,Cn1cc(C(NC(=O)c2cn3ccsc3n2)C2CC(O)C2)cn1 (stereo not shown) [CBK307428],110
4,Cc1cc(-c2nnc(SCC(=O)N3CCCc4ccccc43)o2)no1 [CBK268828],88
5,O=c1[nH]c2ccncc2c2ccccc12 [CBK016740C],92
6,O=C(NCc1ccc2c(c1)OCO2)c1ccc2[nH]ccc2c1 [CBK161750],106
7,CCc1c(S(=O)(=O)CCC(=O)OC)c2ccccc2[n+]([O-])c1C [CBK155469T],91.4
8,C[N+](C)(C)C1=C([O-])c2ccccc2C1=O [CBK009824],92.7
9,COc1cc(C)c(Nc2cc(-c3cccnc3)ncn2)cc1OC [CBK037754],102
10,CCOc1ccsc1C(=O)N1CCc2ccccc21 [CBK200410],100
11,c1ccc(CCn2nnnc2CN2CCN(c3ccccc3)CC2)cc1 [CBK069271],95.2
12,COC(=O)c1ccccc1NC(=O)CSc1nnc(-c2ccccc2)[nH]1 [CBK266338],96.7
13,Cc1cnn(CC(=O)N2CCC(c3cc4ncccc4[nH]3)CC2)c1 [CBK284458],77.2
14,CN(C)Cc1ccccc1-n1cc(-c2cccnc2)nn1 [CBK113064],92.5
15,O=C(NCCCNc1ccc(C(F)(F)F)cc1[N+](=O)[O-])c1ccc(Cl)cc1 [CBK263721],99
16,CC12CCC(=O)N1C(C(=O)NCCNc1ccc(S(C)(=O)=O)cc1[N+](=O)[O-])CS2 (stereo not shown) [CBK296661],87.6
17,c1ccc2cc(-c3cc(Nc4ccc5[nH]ccc5c4)ncn3)ccc2c1 [CBK090853],80.1
18,N[C@H]1CC[C@H](N(CCc2ccccc2)C(=O)N[C@@H]2C[C@H]2c2ccccc2)CC1 [CBK000474C],110
19,Oc1ccc(Nc2nc3nonc3nc2Nc2ccccc2)cc1 [CBK263551],94
20,O=C(NC[C@H]1C[C@@H]2CC[N@]1C[C@@H]2CN1CCN(c2ncccn2)CC1)Nc1ccsc1 [CBK289117],90.3
21,CCN1CCN(c2c(Cl)cccc2NC(=O)c2ccc(N3CCOCC3)c([N+](=O)[O-])c2)CC1 [CBK269066],98.8
22,CC1(C)CC(NC(=O)C2CCCN(S(C)(=O)=O)C2)c2ccccc2O1 (stereo not shown) [CBK304365],98.2

row,SMILES,"viability at 28.5 h, 10 µM [%]"
1,Cc1cc(NC(=O)c2ccc3[nH]ccc3c2)c2ccccc2n1 [CBK116270],104
2,COc1ncc(-c2cccc(N(C)CCN(C)C)n2)c(OC)n1 [CBK037599],99.1
3,COc1cc(C(C)c2cc3c(cc2O)OCO3)cc(OC)c1OC (stereo not shown) [CBK200103],36.3
4,OCc1ccc(-c2nccnc2NCCc2c[nH]c3ccccc23)cc1 [CBK038004],98.8
5,O=S(=O)(Nc1cccnc1N1CCOCC1)c1cc(C(F)(F)F)cc(C(F)(F)F)c1 [CBK062306],122
6,CCOc1cccc(N2C(=O)CC(N3CCC(C(N)=O)(N4CCCCC4)CC3)C2=O)c1 (stereo not shown) [CBK263562],99
7,Cc1ccc(S(=O)(=O)NC2c3cccc4cccc(c34)C2Sc2n[nH]c(N)n2)cc1 (stereo not shown) [CBK265875],77.6
8,Cc1cccc(C)c1NC(=O)c1c(NC(=O)c2ccco2)sc2c1CCC(C)C2 (stereo not shown) [CBK265550],107
9,Cn1nc(C2CCN(C(=O)c3cccc(F)c3)CC2)c2cccnc21 [CBK284898],94
10,Cc1[nH]c2ccccc2c1C(=O)CSc1nncc2ccccc12 [CBK297912],92.1
11,Cc1cccc(NS(=O)(=O)c2ccc(I)cc2)n1 [CBK268818],87
12,CCOC(=O)c1ccc(NC(=S)NCCN(CC)CC)cc1 [CBK018358],104
13,CCN(CC)S(=O)(=O)c1csc(C(=O)Nc2cccc([N+](=O)[O-])c2)c1 [CBK264505],91.3
14,CN(C(=O)NC1CCN(Cc2cccc(O)c2)CC1)C1CCS(=O)(=O)C1 (stereo not shown) [CBK306538],83.5
15,CCN1CCN(C(=O)COc2cccnc2)CC1 [CBK200378],94.8
16,O=C(O)CNC(=O)[C@H]1CC[C@H](Cn2cnc3ccccc3c2=O)CC1 [CBK286714],97
17,c1ccc(OCCN2CCCN(c3nccc(OCCN4CCOCC4)n3)CC2)cc1 [CBK083940],110
18,CCCC(CCC)C(=O)Nc1ccc(NC(=O)c2ccco2)c(C)c1 [CBK058263],91.9
19,O=C(CN1CCC(c2ccccc2F)CC1)NC1CCCC1 [CBK283551],97.4
20,COc1ccc(C2C(C(C)=O)=C(O)C(=O)N2CCC(=O)O)cc1 (stereo not shown) [CBK263763],97.3
21,CCC(CN1CCN(C)CC1)NC(=O)C1(c2cccc(F)c2)CC1 (stereo not shown) [CBK282786],110
22,O=c1c(-c2ccccc2)c(C(F)(F)F)oc2c(CN3CCN(Cc4ccccc4)CC3)c(O)ccc12 [CBK265808],95

row,SMILES,"viability at 28.5 h, 10 µM [%]"
1,O=C(c1ccc2c(c1)CCCO2)N(Cc1ccccn1)CC1CCCO1 (stereo not shown) [CBK307488],84.9
2,CC1CCC2(CC1)N=C(N)Nc1nc3ccccc3n12 (stereo not shown) [CBK277657],88.4
3,CCCCCN1CCn2nc(CNc3cnccn3)cc2C1 [CBK306713],77.2
4,COc1ccc(NS(=O)(=O)c2cc(C(=O)O)sc2Br)cn1 [CBK297943],81.8
5,Nc1ccc2cc(-c3cccc(OCc4ccccc4)c3)cnc2n1 [CBK081172],108
6,COc1cc(/C=C/c2nc(O)c([N+](=O)[O-])c(=O)[nH]2)ccc1OCC(=O)N1CCOCC1 [CBK267168],96.8
7,CC(=O)c1ccc(-c2cnc(N)c(NCC(C)C)n2)s1 [CBK063764],92.8
8,Cc1nc(NC(=O)c2cccc(NC(=O)C3CCCO3)c2)sc1-c1n[nH]c(=S)n1C (stereo not shown) [CBK295341],86.9
9,COc1ccccc1-c1ccc(CC2(C(=O)NCCc3ccc(F)cc3)CCOCC2)cc1 [CBK286520],94.4
10,CCn1cc(C(=O)NC2(c3cccc(OC)c3)CCCC2)cn1 [CBK283750],101
11,c1ccc(CCNc2c3c(nc4ccccc24)CCC3)cc1 [CBK263693C],92.2
12,c1cc(OCc2cccs2)cc(N2CCNCC2)c1 [CBK022557F],89.3
13,CC(C)c1ccc(/C=C/C(=O)NCCN2CCOCC2)cc1 [CBK149631],92.6
14,COc1ccc(CN2CCN(C(=O)c3cccs3)CC2)cc1OC [CBK074410],104
15,O=C(C1=C(O)C(=O)N(Cc2cccnc2)C1c1ccc(Cl)cc1Cl)c1ccccc1 (stereo not shown) [CBK263367],101
16,COc1ccc(-n2cc(-c3ccncc3)nn2)cc1OC [CBK113106],109
17,CC(Sc1nc2ccccc2[nH]1)C(=O)O (stereo not shown) [CBK263063],101
18,CCNc1cc(-c2ccc(CC(C)C)cc2)ncn1 [CBK090884],102
19,Cc1ccc(S(=O)(=O)NC(C)(C)CSc2nnc[nH]2)cc1 [CBK268374],81.5
20,Cc1ncncc1C(=O)N1CCCCC1CCc1ccccc1 (stereo not shown) [CBK282264],109

# Same assay, conditions: human, hela cells, % viability, bulk resorufin, single well
row,SMILES,"viability at 28.5 h, 10 µM [%]"
1,COC(=O)c1cccc2c3c(n(Cc4ccccc4)c12)CCCC3=O [CBK036304],94.7
2,N#CC1(c2ccccc2)CCN(C(=O)c2ccc([N+](=O)[O-])o2)CC1 [CBK091389],95.7
